Assay results: PubChem BioAssay AID2060507 (Molecular Pharmacology Branch, DTP, NCI, 2025)

Test system: 519858-162-T-J1-PDC complex spheroid viability
Assay: Anticancer human tumor 519858-162-T-J1-PDC patient-derived colon adenocarcinoma cell line growth inhibition [GQUAD]
Details: for IC50: curve of first compound; for viability, T/C: stronger effect = lower value
In short: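 Tumor cells were grown as complex spheroids with HUVEC endothelial cells and mesenchymal stem cells as stroma. G-quadruplex stabilizers were combined with targeted agents over half-log dilutions from near the clinical Cmax, or from 10 microM.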

[1] = second compound 0.0316 µM, first compound 0.0316 µM
[2] = second compound 0.0316 µM, first compound 0.1 µM
[3] = second compound 0.0316 µM, first compound 0.316 µM
[4] = second compound 0.0316 µM, first compound 1 µM
[5] = second compound 0.0316 µM, first compound 3.16 µM
[6] = second compound 0.0316 µM, first compound 10 µM
[7] = second compound 0.1 µM, first compound 0.0316 µM
[8] = second compound 0.1 µM, first compound 0.1 µM
[9] = second compound 0.1 µM, first compound 0.316 µM
[10] = second compound 0.1 µM, first compound 1 µM
[11] = second compound 0.1 µM, first compound 3.16 µM
[12] = second compound 0.1 µM, first compound 10 µM
[13] = second compound 0.316 µM, first compound 0.0316 µM
[14] = second compound 0.316 µM, first compound 0.1 µM
[15] = second compound 0.316 µM, first compound 0.316 µM
[16] = second compound 0.316 µM, first compound 1 µM
[17] = second compound 0.316 µM, first compound 3.16 µM
[18] = second compound 0.316 µM, first compound 10 µM
[19] = second compound 1 µM, first compound 0.0316 µM
[20] = second compound 1 µM, first compound 0.1 µM
[21] = second compound 1 µM, first compound 0.316 µM
[22] = second compound 1 µM, first compound 1 µM
[23] = second compound 1 µM, first compound 3.16 µM
[24] = second compound 1 µM, first compound 10 µM
[25] = second compound 3.16 µM, first compound 0.0316 µM
[26] = second compound 3.16 µM, first compound 0.1 µM
[27] = second compound 3.16 µM, first compound 0.316 µM
[28] = second compound 3.16 µM, first compound 1 µM
[29] = second compound 3.16 µM, first compound 3.16 µM
[30] = second compound 3.16 µM, first compound 10 µM
[31] = second compound 10 µM, first compound 0.0316 µM
[32] = second compound 10 µM, first compound 0.1 µM
[33] = second compound 10 µM, first compound 0.316 µM
[34] = second compound 10 µM, first compound 1 µM
[35] = second compound 10 µM, first compound 3.16 µM
[36] = second compound 10 µM, first compound 10 µM
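Further: spheroids exposed to compounds for 7 days.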
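Wherever viability, T/C is given: 100% = DMSO vehicle control viability.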

CC1COCCN1c1cc(C2(S(C)(=N)=O)CC2)nc(-c2ccnc3[nH]ccc23)n1 (stereo not drawn) + Cc1cnc(CNC(=O)c2c(=O)c3ccc(N4CCCN(C)CC4)nc3n3c2sc2ccccc23)cn1
IC50 (second compound 0.0316 µM): 10 µM | IC50 (second compound 0.1 µM): > 10 µM | IC50 (second compound 0.316 µM): > 10 µM | IC50 (second compound 1 µM): > 10 µM | IC50 (second compound 3.16 µM): < 0.0316 µM | IC50 (second compound 10 µM): < 0.0316 µM | viability, T/C [1]: 90.9% | viability, T/C [2]: 84.6% | viability, T/C [3]: 89% | viability, T/C [4]: 98.5% | viability, T/C [5]: 48% | viability, T/C [6]: 67.8% | viability, T/C [7]: 114% | viability, T/C [8]: 91.3% | viability, T/C [9]: 84.3% | viability, T/C [10]: 59.8% | viability, T/C [11]: 55.2% | viability, T/C [12]: 78.5% | viability, T/C [13]: 79.3% | viability, T/C [14]: 92.8% | viability, T/C [15]: 67.8% | viability, T/C [16]: 82.6% | viability, T/C [17]: 79.3% | viability, T/C [18]: 66.6% | viability, T/C [19]: 48.6% | viability, T/C [20]: 57.5% | viability, T/C [21]: 74.4% | viability, T/C [22]: 44.8% | viability, T/C [23]: 48.2% | viability, T/C [24]: 57.7% | viability, T/C [25]: 35.9% | viability, T/C [26]: 39% | viability, T/C [27]: 45.5% | viability, T/C [28]: 56.4% | viability, T/C [29]: 51.4% | viability, T/C [30]: 51.1% | viability, T/C [31]: 46% | viability, T/C [32]: 35.6% | viability, T/C [33]: 62.2% | viability, T/C [34]: 41% | viability, T/C [35]: 58.8% | viability, T/C [36]: 37.4%

CC1COCCN1c1cc(C2(O)CC3CCC(C2)O3)c2cnn(-c3ccn[nH]3)c2n1 (stereo not drawn) + Cc1cnc(CNC(=O)c2c(=O)c3ccc(N4CCCN(C)CC4)nc3n3c2sc2ccccc23)cn1
IC50 (second compound 0.0316 µM): 6.31 µM | IC50 (second compound 0.1 µM): 3.16 µM | IC50 (second compound 0.316 µM): 3.2 µM | IC50 (second compound 1 µM): 0.235 µM | IC50 (second compound 3.16 µM): < 0.0316 µM | IC50 (second compound 10 µM): < 0.0316 µM | viability, T/C [1]: 64.5% | viability, T/C [2]: 77.8% | viability, T/C [3]: 92.2% | viability, T/C [4]: 77.6% | viability, T/C [5]: 82% | viability, T/C [6]: 30.6% | viability, T/C [7]: 106% | viability, T/C [8]: 85.8% | viability, T/C [9]: 96.3% | viability, T/C [10]: 44.8% | viability, T/C [11]: 61.3% | viability, T/C [12]: 57.7% | viability, T/C [13]: 65.6% | viability, T/C [14]: 60% | viability, T/C [15]: 51.7% | viability, T/C [16]: 62.7% | viability, T/C [17]: 49.2% | viability, T/C [18]: 29.9% | viability, T/C [19]: 59.3% | viability, T/C [20]: 60.8% | viability, T/C [21]: 41.6% | viability, T/C [22]: 43.4% | viability, T/C [23]: 50.5% | viability, T/C [24]: 39.6% | viability, T/C [25]: 45.7% | viability, T/C [26]: 38.9% | viability, T/C [27]: 44.9% | viability, T/C [28]: 42.4% | viability, T/C [29]: 26.8% | viability, T/C [30]: 23.8% | viability, T/C [31]: 37.7% | viability, T/C [32]: 44% | viability, T/C [33]: 37.7% | viability, T/C [34]: 39.2% | viability, T/C [35]: 34.1% | viability, T/C [36]: 23.7%

COc1cccc2c1C(=O)c1c(O)c3c(c(O)c1C2=O)CC(O)(C(=O)CO)CC3OC1CC(N)C(O)C(C)O1 (stereo not drawn) + CN(C)c1ccc(Nc2c3ccc(NC(=O)CCN4CCCC4)cc3nc3cc(NC(=O)CCN4CCCC4)ccc23)cc1
IC50 (second compound 0.0316 µM): > 10 µM | IC50 (second compound 0.1 µM): > 10 µM | IC50 (second compound 0.316 µM): > 10 µM | IC50 (second compound 1 µM): 8.56 µM | IC50 (second compound 3.16 µM): > 10 µM | IC50 (second compound 10 µM): > 10 µM | viability, T/C [1]: 80.7% | viability, T/C [2]: 124% | viability, T/C [3]: 97.7% | viability, T/C [4]: 72% | viability, T/C [5]: 71% | viability, T/C [6]: 58.1% | viability, T/C [7]: 90.6% | viability, T/C [8]: 84.6% | viability, T/C [9]: 104% | viability, T/C [10]: 80.8% | viability, T/C [11]: 60.5% | viability, T/C [12]: 60.1% | viability, T/C [13]: 88.4% | viability, T/C [14]: 58.5% | viability, T/C [15]: 79.7% | viability, T/C [16]: 65.1% | viability, T/C [17]: 62.2% | viability, T/C [18]: 75.5% | viability, T/C [19]: 85.5% | viability, T/C [20]: 71.9% | viability, T/C [21]: 56.4% | viability, T/C [22]: 100% | viability, T/C [23]: 65.2% | viability, T/C [24]: 47.1% | viability, T/C [25]: 74.9% | viability, T/C [26]: 60.6% | viability, T/C [27]: 80% | viability, T/C [28]: 66.8% | viability, T/C [29]: 63.2% | viability, T/C [30]: 55.8% | viability, T/C [31]: 57.1% | viability, T/C [32]: 62.9% | viability, T/C [33]: 57.1% | viability, T/C [34]: 60.1% | viability, T/C [35]: 50.3% | viability, T/C [36]: 68.8%

COc1cccc2c1C(=O)c1c(O)c3c(c(O)c1C2=O)CC(O)(C(=O)CO)CC3OC1CC(N)C(O)C(C)O1 (stereo not drawn) + Cc1[nH]c2ccc(F)cc2c1-c1nc2c3cccnc3c3ncccc3c2[nH]1
IC50 (second compound 0.0316 µM): > 10 µM | IC50 (second compound 0.1 µM): > 10 µM | IC50 (second compound 0.316 µM): > 10 µM | IC50 (second compound 1 µM): > 10 µM | IC50 (second compound 3.16 µM): > 10 µM | IC50 (second compound 10 µM): > 10 µM | viability, T/C [1]: 117% | viability, T/C [2]: 126% | viability, T/C [3]: 95.3% | viability, T/C [4]: 81.9% | viability, T/C [5]: 82.1% | viability, T/C [6]: 75.3% | viability, T/C [7]: 104% | viability, T/C [8]: 122% | viability, T/C [9]: 98.5% | viability, T/C [10]: 80.1% | viability, T/C [11]: 61.3% | viability, T/C [12]: 62.1% | viability, T/C [13]: 82.3% | viability, T/C [14]: 95.4% | viability, T/C [15]: 121% | viability, T/C [16]: 78.6% | viability, T/C [17]: 72.9% | viability, T/C [18]: 50.6% | viability, T/C [19]: 109% | viability, T/C [20]: 98.6% | viability, T/C [21]: 109% | viability, T/C [22]: 70.2% | viability, T/C [23]: 69.9% | viability, T/C [24]: 51.9% | viability, T/C [25]: 96.3% | viability, T/C [26]: 72.7% | viability, T/C [27]: 78.3% | viability, T/C [28]: 68.2% | viability, T/C [29]: 62.4% | viability, T/C [30]: 72.9% | viability, T/C [31]: 47% | viability, T/C [32]: 79.9% | viability, T/C [33]: 60.7% | viability, T/C [34]: 51.4% | viability, T/C [35]: 44% | viability, T/C [36]: 78.1%
